According to the NIST ThermoML archive (doi:10.1016/j.jct.2018.09.027):

Experiment: molar heat capacity at constant pressure
Conditions: 100 kPa, Crystal, DSC

O=c1oc2c(O)c(O)cc3c(=O)oc4c(O)c(O)cc1c4c23 [2,3,7,8-tetrahydroxychromeno[5,4,3-cde]chromene-5,10-dione]
Conditions | molar heat capacity at constant pressure [J/K/mol]
260.15 K | 292.07
261.15 K | 292.68
262.15 K | 293.58
263.15 K | 294.64
264.15 K | 295.85
265.15 K | 297.06
266.15 K | 297.97
267.15 K | 298.87
268.15 K | 299.93
269.15 K | 301.59
270.15 K | 303.41
271.15 K | 303.41
272.15 K | 304.01
273.15 K | 305.37
274.15 K | 307.49
275.15 K | 308.39
276.15 K | 308.09
277.15 K | 308.54
278.15 K | 310.36
279.15 K | 311.57
280.15 K | 311.26
281.15 K | 312.62
282.15 K | 314.29
283.15 K | 315.19
284.15 K | 315.95
285.15 K | 316.25
286.15 K | 317.16
287.15 K | 318.97
288.15 K | 320.33
289.15 K | 319.72
290.15 K | 320.48
291.15 K | 321.84
292.15 K | 323.35
293.15 K | 323.05
294.15 K | 324.26
295.15 K | 325.47
296.15 K | 326.4
297.15 K | 327.73
298.15 K | 328.85
299.15 K | 329.64
300.15 K | 330.7
301.15 K | 331.91
302.15 K | 332.12
303.15 K | 333.63
304.15 K | 334.99
305.15 K | 335.69
306.15 K | 336.45
307.15 K | 337.53
308.15 K | 338.02
309.15 K | 339.27
310.15 K | 339.49
311.15 K | 340.77
312.15 K | 341.16
313.15 K | 342.26
314.15 K | 343.3
315.15 K | 343.78
316.15 K | 345.03
317.15 K | 346.85
318.15 K | 347.5
319.15 K | 348.3
320.15 K | 349.21
321.15 K | 350.81
322.15 K | 351.92
323.15 K | 352.53
324.15 K | 353.13
325.15 K | 354.43
326.15 K | 355.55
327.15 K | 356.86
328.15 K | 357.07
329.15 K | 358.38
330.15 K | 359.69
331.15 K | 361.39
332.15 K | 362.3
333.15 K | 363.1
334.15 K | 364.21
335.15 K | 365.02
336.15 K | 366.23
337.15 K | 367.13
338.15 K | 368.24
339.15 K | 369.55
340.15 K | 370.36
341.15 K | 370.96
342.15 K | 371.07
343.15 K | 372.48
344.15 K | 373.08
345.15 K | 373.69
346.15 K | 374.1
347.15 K | 375.31
348.15 K | 376.31
349.15 K | 377.02
350.15 K | 378.82
351.15 K | 379.03
352.15 K | 379.54
353.15 K | 381.35
354.15 K | 383.99
355.15 K | 385.91
356.15 K | 385.3
357.15 K | 386.51
358.15 K | 387.62
359.15 K | 388.02
360.15 K | 390.04
361.15 K | 391.3
362.15 K | 392.55
363.15 K | 393.1
364.15 K | 393.5
365.15 K | 394.2
366.15 K | 395.1
367.15 K | 396
368.15 K | 396.5
369.15 K | 397.3
370.15 K | 397.8
371.15 K | 398
372.15 K | 399.5
373.15 K | 400.1
374.15 K | 401.2
375.15 K | 402.5
376.15 K | 403.1
377.15 K | 403.8
378.15 K | 404.5
379.15 K | 405.3
380.15 K | 406.12
381.15 K | 407.6
382.15 K | 408.2
383.15 K | 409.5
384.15 K | 410.1
385.15 K | 411.31
386.15 K | 412.22
387.15 K | 413.52
388.15 K | 414.82
389.15 K | 415.43
390.15 K | 416.64
391.15 K | 417.54
392.15 K | 418.85
393.15 K | 419.15
394.15 K | 420.36
395.15 K | 421.26
396.15 K | 421.57
397.15 K | 422.17
398.15 K | 423.08
399.15 K | 423.98
400.15 K | 424.59
401.15 K | 424.59
402.15 K | 425.19
403.15 K | 426.4
404.15 K | 427.31
405.15 K | 427
406.15 K | 427.31
407.15 K | 427.91
408.15 K | 429.42
409.15 K | 430.03
410.15 K | 430.78
411.15 K | 431.39
412.15 K | 432.44
413.15 K | 432.9
414.15 K | 433.5
415.15 K | 434.56
416.15 K | 435.77
417.15 K | 436.2
418.15 K | 437
419.15 K | 438.2
420.15 K | 439.1
421.15 K | 440.5
422.15 K | 441.2
423.15 K | 442.3
424.15 K | 443.93
425.15 K | 444.5
426.15 K | 444.8
427.15 K | 445.1
428.15 K | 445.9
429.15 K | 446.2
430.15 K | 446.8
431.15 K | 447.3
432.15 K | 448.2
433.15 K | 448.6
434.15 K | 449.4
435.15 K | 450.58
436.15 K | 451.79
437.15 K | 452.39
438.15 K | 452.69
439.15 K | 452.99
440.15 K | 453.9
441.15 K | 454.71
442.15 K | 455.32
443.15 K | 455.41
444.15 K | 455.71
445.15 K | 456.02
446.15 K | 457.53
447.15 K | 457.83
448.15 K | 458.43
449.15 K | 459.04
450.15 K | 459.64
451.15 K | 459.94
452.15 K | 460.2
453.15 K | 460.85
454.15 K | 461.14
455.15 K | 460.85
456.15 K | 461.3
457.15 K | 461.76
458.15 K | 462.11
459.15 K | 462.61
460.15 K | 463.82
461.15 K | 464.57
462.15 K | 465.08
463.15 K | 466.38
464.15 K | 467.05
465.15 K | 468.71
466.15 K | 468.5
467.15 K | 469
468.15 K | 469.5
469.15 K | 470.1
470.15 K | 470.8
471.15 K | 471.2
472.15 K | 471.5
473.15 K | 472.94
474.15 K | 473.85
475.15 K | 474.15
476.15 K | 474.75
477.15 K | 475.05
478.15 K | 476.26
479.15 K | 477.17
480.15 K | 477.47
481.15 K | 478.38
482.15 K | 479.59
483.15 K | 480.19
484.15 K | 480.39
485.15 K | 481.19
486.15 K | 482
487.15 K | 482.31
488.15 K | 482.61
489.15 K | 483.31
490.15 K | 484.21
491.15 K | 485.63
492.15 K | 486.93
493.15 K | 487.54
494.15 K | 488.84
495.15 K | 489.26
496.15 K | 489.26
497.15 K | 489.56
498.15 K | 489.26
499.15 K | 490.77
500.15 K | 491.28
501.15 K | 492.18
502.15 K | 493.28
503.15 K | 494.19
504.15 K | 495
505.15 K | 495.3
506.15 K | 495
507.15 K | 494.7
508.15 K | 495
509.15 K | 495
510.15 K | 495.3
511.15 K | 496
512.15 K | 497.72
513.15 K | 497.82
514.15 K | 498.32
515.15 K | 499.23
516.15 K | 499.5
517.15 K | 500.1
518.15 K | 501.3
519.15 K | 501.8
520.15 K | 502.5
521.15 K | 503.1
522.15 K | 503.6
